{"source": "the kinase profiling compilation of Christmann-Franck et al. (2016)", "assay_in_all_cases": "radiometric filter-binding kinase assay, Kinase HotSpot", "settings_in_all_cases": "compound 0.5 µM; ATP 10 µM", "key": {"RPS6KB2 (human)": {"biological_target": "RPS6KB2 (human) (UniProt Q9UBS0)"}, "CLK1 (human)": {"biological_target": "CLK1 (human) (UniProt P49759)"}, "BRSK1 (human)": {"biological_target": "BRSK1 (human) (UniProt Q8TDC3)"}, "ROS1 (human)": {"biological_target": "ROS1 (human) (UniProt P08922)"}, "RIPK2 (human)": {"biological_target": "RIPK2 (human) (UniProt O43353)"}, "CDK4 CCND3 (human)": {"biological_target": "CDK4 CCND3 (human) (UniProt P30281+P11802)"}, "BLK (human)": {"biological_target": "BLK (human) (UniProt P51451)"}, "MAP3K3 (human)": {"biological_target": "MAP3K3 (human) (UniProt Q99759)", "sequence (Q99759 whole entry, looked up)": "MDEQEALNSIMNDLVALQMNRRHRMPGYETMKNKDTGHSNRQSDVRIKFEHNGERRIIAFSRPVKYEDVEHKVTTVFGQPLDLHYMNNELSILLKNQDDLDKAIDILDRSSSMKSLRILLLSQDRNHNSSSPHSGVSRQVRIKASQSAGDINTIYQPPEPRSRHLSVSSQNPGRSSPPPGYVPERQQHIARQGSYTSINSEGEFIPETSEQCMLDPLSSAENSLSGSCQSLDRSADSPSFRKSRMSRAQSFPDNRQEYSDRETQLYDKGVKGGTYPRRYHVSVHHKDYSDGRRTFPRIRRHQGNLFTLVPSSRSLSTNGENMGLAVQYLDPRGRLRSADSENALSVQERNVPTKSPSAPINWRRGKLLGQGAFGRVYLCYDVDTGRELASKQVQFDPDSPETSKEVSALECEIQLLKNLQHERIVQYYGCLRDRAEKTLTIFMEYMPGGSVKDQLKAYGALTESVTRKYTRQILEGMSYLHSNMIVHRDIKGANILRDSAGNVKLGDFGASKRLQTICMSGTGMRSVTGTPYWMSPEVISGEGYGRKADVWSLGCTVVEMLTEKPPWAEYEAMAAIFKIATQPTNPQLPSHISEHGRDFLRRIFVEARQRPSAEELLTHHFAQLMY"}, "CDK4 CCND1 (human)": {"biological_target": "CDK4 CCND1 (human) (UniProt P24385+P11802)"}, "AXL (human)": {"biological_target": "AXL (human) (UniProt P30530)"}, "LYN (human)": {"biological_target": "LYN (human) (UniProt P07948)", "sequence (P07948 whole entry, looked up)": "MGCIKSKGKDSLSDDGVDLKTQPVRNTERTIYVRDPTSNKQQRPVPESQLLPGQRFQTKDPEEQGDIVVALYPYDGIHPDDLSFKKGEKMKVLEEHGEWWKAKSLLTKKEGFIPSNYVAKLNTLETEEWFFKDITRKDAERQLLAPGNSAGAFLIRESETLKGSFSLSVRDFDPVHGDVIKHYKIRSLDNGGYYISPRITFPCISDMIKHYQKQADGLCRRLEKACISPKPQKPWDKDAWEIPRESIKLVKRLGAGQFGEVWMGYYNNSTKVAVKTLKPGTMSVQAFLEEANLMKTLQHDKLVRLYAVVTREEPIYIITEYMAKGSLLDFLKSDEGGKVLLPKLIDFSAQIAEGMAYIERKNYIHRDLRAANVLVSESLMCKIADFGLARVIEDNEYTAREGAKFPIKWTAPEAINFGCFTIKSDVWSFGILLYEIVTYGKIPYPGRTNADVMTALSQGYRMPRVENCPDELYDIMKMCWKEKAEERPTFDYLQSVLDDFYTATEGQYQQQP"}, "EPHB4 (human)": {"biological_target": "EPHB4 (human) (UniProt P54760)"}, "PRKD3 (human)": {"biological_target": "PRKD3 (human) (UniProt O94806)"}, "MUSK (human)": {"biological_target": "MUSK (human) (UniProt O15146)"}, "CSNK1A1 (human)": {"biological_target": "CSNK1A1 (human) (UniProt P48729)"}, "SGK2 (human)": {"biological_target": "SGK2 (human) (UniProt Q9HBY8)"}, "YES1 (human)": {"biological_target": "YES1 (human) (UniProt P07947)"}, "CDK9 CCNT1 (human)": {"biological_target": "CDK9 CCNT1 (human) (UniProt P50750+O60563)"}, "PIM2 (human)": {"biological_target": "PIM2 (human) (UniProt Q9P1W9)"}, "JAK3 JH1 JH2 (human)": {"biological_target": "JAK3 JH1 JH2 (human) (UniProt P52333)"}, "TAOK1 (human)": {"biological_target": "TAOK1 (human) (UniProt Q7L7X3)"}, "STK39 (human)": {"biological_target": "STK39 (human) (UniProt Q9UEW8)"}, "CAMK1D (human)": {"biological_target": "CAMK1D (human) (UniProt Q8IU85)", "sequence (Q8IU85 whole entry, looked up)": "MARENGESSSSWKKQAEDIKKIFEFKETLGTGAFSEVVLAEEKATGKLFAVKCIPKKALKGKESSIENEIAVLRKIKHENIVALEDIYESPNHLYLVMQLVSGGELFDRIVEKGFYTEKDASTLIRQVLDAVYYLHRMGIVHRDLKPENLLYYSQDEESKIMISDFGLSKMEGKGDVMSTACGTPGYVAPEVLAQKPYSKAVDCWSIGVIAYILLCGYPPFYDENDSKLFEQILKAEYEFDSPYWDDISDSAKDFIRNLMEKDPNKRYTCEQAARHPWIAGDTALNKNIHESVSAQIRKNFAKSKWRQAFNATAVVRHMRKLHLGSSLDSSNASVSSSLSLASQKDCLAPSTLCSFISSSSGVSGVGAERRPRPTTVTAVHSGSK"}, "MARK2 (human)": {"biological_target": "MARK2 (human) (UniProt Q7KZI7)"}, "TGFBR2 (human)": {"biological_target": "TGFBR2 (human) (UniProt P37173)", "sequence (P37173 whole entry, looked up)": "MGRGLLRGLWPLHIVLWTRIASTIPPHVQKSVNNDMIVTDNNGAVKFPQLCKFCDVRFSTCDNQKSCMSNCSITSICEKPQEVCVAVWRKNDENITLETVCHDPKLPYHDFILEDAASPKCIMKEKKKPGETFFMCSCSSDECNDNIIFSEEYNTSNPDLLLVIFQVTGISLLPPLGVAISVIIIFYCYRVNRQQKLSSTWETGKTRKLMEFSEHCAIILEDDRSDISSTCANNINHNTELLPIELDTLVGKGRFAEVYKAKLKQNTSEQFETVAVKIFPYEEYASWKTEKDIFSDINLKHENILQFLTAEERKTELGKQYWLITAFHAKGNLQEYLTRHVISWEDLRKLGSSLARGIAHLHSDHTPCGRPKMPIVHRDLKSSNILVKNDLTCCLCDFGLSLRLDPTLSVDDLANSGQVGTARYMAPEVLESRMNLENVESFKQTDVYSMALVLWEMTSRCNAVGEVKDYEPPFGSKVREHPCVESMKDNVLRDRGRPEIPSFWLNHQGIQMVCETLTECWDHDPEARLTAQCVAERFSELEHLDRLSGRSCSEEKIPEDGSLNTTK"}, "ULK2 (human)": {"biological_target": "ULK2 (human) (UniProt Q8IYT8)", "sequence (Q8IYT8 whole entry, looked up)": "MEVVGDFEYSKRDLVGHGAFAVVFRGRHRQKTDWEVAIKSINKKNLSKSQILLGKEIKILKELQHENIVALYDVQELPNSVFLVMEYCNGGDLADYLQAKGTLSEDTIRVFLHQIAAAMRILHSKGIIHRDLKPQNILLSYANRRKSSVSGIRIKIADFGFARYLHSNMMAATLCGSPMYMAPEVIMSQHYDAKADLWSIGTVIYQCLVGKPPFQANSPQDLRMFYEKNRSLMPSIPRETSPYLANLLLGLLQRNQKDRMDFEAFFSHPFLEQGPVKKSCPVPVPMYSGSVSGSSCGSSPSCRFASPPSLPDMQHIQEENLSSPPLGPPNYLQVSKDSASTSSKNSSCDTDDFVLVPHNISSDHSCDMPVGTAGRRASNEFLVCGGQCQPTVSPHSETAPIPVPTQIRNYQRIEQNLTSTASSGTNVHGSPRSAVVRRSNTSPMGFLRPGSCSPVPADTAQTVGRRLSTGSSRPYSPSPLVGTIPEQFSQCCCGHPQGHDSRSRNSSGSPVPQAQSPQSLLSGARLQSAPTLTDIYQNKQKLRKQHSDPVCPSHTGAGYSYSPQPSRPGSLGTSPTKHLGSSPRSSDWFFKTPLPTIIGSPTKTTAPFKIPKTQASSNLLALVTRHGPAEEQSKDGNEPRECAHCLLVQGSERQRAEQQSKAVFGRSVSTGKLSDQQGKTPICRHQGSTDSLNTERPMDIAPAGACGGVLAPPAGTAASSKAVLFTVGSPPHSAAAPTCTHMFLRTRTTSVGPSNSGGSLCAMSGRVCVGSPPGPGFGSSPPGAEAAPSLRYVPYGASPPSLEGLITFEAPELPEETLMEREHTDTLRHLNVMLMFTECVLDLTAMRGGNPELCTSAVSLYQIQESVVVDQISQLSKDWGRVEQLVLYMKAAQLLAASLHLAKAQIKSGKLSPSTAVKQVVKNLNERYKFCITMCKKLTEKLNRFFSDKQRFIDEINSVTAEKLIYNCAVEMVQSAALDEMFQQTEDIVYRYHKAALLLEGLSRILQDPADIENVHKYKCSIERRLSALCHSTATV"}, "LCK (human)": {"biological_target": "LCK (human) (UniProt P06239)"}, "DYRK3 (human)": {"biological_target": "DYRK3 (human) (UniProt O43781)"}, "DMPK (human)": {"biological_target": "DMPK (human) (UniProt Q09013)", "sequence (Q09013 whole entry, looked up)": "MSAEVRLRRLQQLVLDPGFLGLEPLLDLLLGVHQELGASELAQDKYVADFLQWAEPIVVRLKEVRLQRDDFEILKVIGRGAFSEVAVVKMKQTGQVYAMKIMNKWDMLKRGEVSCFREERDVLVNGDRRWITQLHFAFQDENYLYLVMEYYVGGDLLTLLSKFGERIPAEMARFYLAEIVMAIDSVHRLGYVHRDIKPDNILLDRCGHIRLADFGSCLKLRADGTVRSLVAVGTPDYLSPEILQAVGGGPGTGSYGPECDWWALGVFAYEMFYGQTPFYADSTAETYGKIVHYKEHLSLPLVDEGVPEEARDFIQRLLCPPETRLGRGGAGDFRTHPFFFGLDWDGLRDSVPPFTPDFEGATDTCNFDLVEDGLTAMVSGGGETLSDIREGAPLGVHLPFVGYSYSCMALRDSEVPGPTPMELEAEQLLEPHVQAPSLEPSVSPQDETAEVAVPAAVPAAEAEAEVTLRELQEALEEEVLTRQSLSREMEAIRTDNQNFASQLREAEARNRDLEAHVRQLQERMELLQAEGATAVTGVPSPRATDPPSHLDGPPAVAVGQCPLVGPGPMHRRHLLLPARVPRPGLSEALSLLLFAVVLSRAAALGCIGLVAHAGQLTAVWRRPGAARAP"}, "PRKG1 (human)": {"biological_target": "PRKG1 (human) (UniProt Q13976)", "sequence (Q13976 whole entry, looked up)": "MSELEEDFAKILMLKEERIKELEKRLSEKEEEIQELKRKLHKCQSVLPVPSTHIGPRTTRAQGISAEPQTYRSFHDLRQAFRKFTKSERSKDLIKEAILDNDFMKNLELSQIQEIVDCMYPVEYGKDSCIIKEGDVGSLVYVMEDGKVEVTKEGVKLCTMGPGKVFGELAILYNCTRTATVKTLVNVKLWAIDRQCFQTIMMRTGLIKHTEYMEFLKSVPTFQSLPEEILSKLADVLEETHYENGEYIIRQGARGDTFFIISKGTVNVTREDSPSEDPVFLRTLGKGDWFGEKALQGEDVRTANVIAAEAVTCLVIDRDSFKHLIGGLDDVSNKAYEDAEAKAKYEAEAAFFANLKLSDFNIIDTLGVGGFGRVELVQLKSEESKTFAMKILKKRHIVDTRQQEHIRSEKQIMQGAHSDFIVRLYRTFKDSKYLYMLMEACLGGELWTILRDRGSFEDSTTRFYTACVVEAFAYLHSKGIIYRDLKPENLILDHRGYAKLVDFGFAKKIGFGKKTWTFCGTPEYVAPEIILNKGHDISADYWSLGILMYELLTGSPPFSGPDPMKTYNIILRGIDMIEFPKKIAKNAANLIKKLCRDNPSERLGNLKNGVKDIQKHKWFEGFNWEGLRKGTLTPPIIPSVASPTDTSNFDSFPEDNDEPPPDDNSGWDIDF"}, "CDC42BPB (human)": {"biological_target": "CDC42BPB (human) (UniProt Q9Y5S2)"}, "CLK3 (human)": {"biological_target": "CLK3 (human) (UniProt P49761)"}, "ABL1 (human)": {"biological_target": "ABL1 (human) (UniProt P00519)"}, "RPS6KB1 (human)": {"biological_target": "RPS6KB1 (human) (UniProt P23443)"}, "FGFR3 (human)": {"biological_target": "FGFR3 (human) (UniProt P22607)"}, "CDK5 CDK5R1 p35 (human)": {"biological_target": "CDK5 CDK5R1 p35 (human) (UniProt Q00535+Q15078)"}, "GRK5 (human)": {"biological_target": "GRK5 (human) (UniProt P34947)", "sequence (P34947 whole entry, looked up)": "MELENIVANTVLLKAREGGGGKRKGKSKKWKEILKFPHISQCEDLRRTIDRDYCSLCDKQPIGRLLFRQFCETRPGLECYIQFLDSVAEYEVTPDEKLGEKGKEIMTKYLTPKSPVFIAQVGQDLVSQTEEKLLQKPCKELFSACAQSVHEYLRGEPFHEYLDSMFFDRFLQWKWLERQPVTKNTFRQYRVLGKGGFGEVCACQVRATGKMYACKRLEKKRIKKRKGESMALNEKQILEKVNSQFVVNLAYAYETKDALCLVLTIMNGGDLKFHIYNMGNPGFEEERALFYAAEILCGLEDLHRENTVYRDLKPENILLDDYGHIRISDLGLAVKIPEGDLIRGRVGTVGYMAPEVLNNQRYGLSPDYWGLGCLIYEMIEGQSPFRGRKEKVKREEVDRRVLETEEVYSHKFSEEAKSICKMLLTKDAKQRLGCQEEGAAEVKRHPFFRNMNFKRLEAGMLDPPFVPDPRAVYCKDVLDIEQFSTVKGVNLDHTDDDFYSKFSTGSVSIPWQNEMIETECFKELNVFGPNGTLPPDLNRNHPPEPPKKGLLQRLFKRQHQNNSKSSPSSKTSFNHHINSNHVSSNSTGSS"}, "ROCK2 (human)": {"biological_target": "ROCK2 (human) (UniProt O75116)"}, "FRK (human)": {"biological_target": "FRK (human) (UniProt P42685)"}, "CAMK1 (human)": {"biological_target": "CAMK1 (human) (UniProt Q14012)"}, "LIMK1 (human)": {"biological_target": "LIMK1 (human) (UniProt P53667)"}, "WNK2 (human)": {"biological_target": "WNK2 (human) (UniProt Q9Y3S1)"}}, "note": "Values joined by “and” are separate entries in the source; they are usually repeats but may differ in a detail not shown here. Equal values may be shown once."}
{"molecule": "COc1ccc(S(=O)(=O)N(CCO)c2ccccc2CN(C)C/C=C/c2ccc(Cl)cc2)cc1", "values": [{"measurement": "residual activity", "setting": "RPS6KB2 (human)", "result": 97.1, "unit": "%"}, {"measurement": "residual activity", "setting": "CLK1 (human)", "result": 96.4, "unit": "%"}, {"measurement": "residual activity", "setting": "BRSK1 (human)", "result": 98.4, "unit": "%"}, {"measurement": "residual activity", "setting": "ROS1 (human)", "result": 95.4, "unit": "%"}, {"measurement": "residual activity", "setting": "RIPK2 (human)", "result": 87, "unit": "%"}, {"measurement": "residual activity", "setting": "CDK4 CCND3 (human)", "result": 94.1, "unit": "%"}, {"measurement": "residual activity", "setting": "BLK (human)", "result": 103, "unit": "%"}, {"measurement": "residual activity", "setting": "MAP3K3 (human)", "result": 99.8, "unit": "%"}, {"measurement": "residual activity", "setting": "CDK4 CCND1 (human)", "result": 94.6, "unit": "%"}, {"measurement": "residual activity", "setting": "AXL (human)", "result": 104, "unit": "%"}, {"measurement": "residual activity", "setting": "LYN (human)", "result": "92.3% and 96.8%"}, {"measurement": "residual activity", "setting": "EPHB4 (human)", "result": 104, "unit": "%"}, {"measurement": "residual activity", "setting": "PRKD3 (human)", "result": 97.1, "unit": "%"}, {"measurement": "residual activity", "setting": "MUSK (human)", "result": 94.7, "unit": "%"}, {"measurement": "residual activity", "setting": "CSNK1A1 (human)", "result": 99.3, "unit": "%"}, {"measurement": "residual activity", "setting": "SGK2 (human)", "result": 99.8, "unit": "%"}, {"measurement": "residual activity", "setting": "YES1 (human)", "result": 103, "unit": "%"}, {"measurement": "residual activity", "setting": "CDK9 CCNT1 (human)", "result": 103, "unit": "%"}, {"measurement": "residual activity", "setting": "PIM2 (human)", "result": 99.7, "unit": "%"}, {"measurement": "residual activity", "setting": "JAK3 JH1 JH2 (human)", "result": 97, "unit": "%"}, {"measurement": "residual activity", "setting": "TAOK1 (human)", "result": 103, "unit": "%"}, {"measurement": "residual activity", "setting": "STK39 (human)", "result": 92.8, "unit": "%"}, {"measurement": "residual activity", "setting": "CAMK1D (human)", "result": 103, "unit": "%"}, {"measurement": "residual activity", "setting": "MARK2 (human)", "result": 95.5, "unit": "%"}, {"measurement": "residual activity", "setting": "TGFBR2 (human)", "result": 97.2, "unit": "%"}, {"measurement": "residual activity", "setting": "ULK2 (human)", "result": 102, "unit": "%"}, {"measurement": "residual activity", "setting": "LCK (human)", "result": 95.5, "unit": "%"}, {"measurement": "residual activity", "setting": "DYRK3 (human)", "result": 113, "unit": "%"}, {"measurement": "residual activity", "setting": "DMPK (human)", "result": 105, "unit": "%"}, {"measurement": "residual activity", "setting": "PRKG1 (human)", "result": "93.2% and 94.7%"}, {"measurement": "residual activity", "setting": "CDC42BPB (human)", "result": 101, "unit": "%"}, {"measurement": "residual activity", "setting": "CLK3 (human)", "result": 100, "unit": "%"}, {"measurement": "residual activity", "setting": "ABL1 (human)", "result": 100, "unit": "%"}, {"measurement": "residual activity", "setting": "RPS6KB1 (human)", "result": 103, "unit": "%"}, {"measurement": "residual activity", "setting": "FGFR3 (human)", "result": 70.1, "unit": "%"}, {"measurement": "residual activity", "setting": "CDK5 CDK5R1 p35 (human)", "result": 99.9, "unit": "%"}, {"measurement": "residual activity", "setting": "GRK5 (human)", "result": 94.1, "unit": "%"}, {"measurement": "residual activity", "setting": "ROCK2 (human)", "result": 94.6, "unit": "%"}, {"measurement": "residual activity", "setting": "FRK (human)", "result": 106, "unit": "%"}, {"measurement": "residual activity", "setting": "CAMK1 (human)", "result": 105, "unit": "%"}, {"measurement": "residual activity", "setting": "LIMK1 (human)", "result": 102, "unit": "%"}, {"measurement": "residual activity", "setting": "WNK2 (human)", "result": 97.1, "unit": "%"}]}
{"molecule": "CN(C)CCCn1cc(C2=C(c3c[nH]c4ccccc34)C(=O)NC2=O)c2ccccc21", "values": [{"measurement": "residual activity", "setting": "RPS6KB2 (human)", "result": 59, "unit": "%"}, {"measurement": "residual activity", "setting": "CLK1 (human)", "result": 60.3, "unit": "%"}, {"measurement": "residual activity", "setting": "BRSK1 (human)", "result": 76.9, "unit": "%"}, {"measurement": "residual activity", "setting": "ROS1 (human)", "result": 62.8, "unit": "%"}, {"measurement": "residual activity", "setting": "RIPK2 (human)", "result": 87.7, "unit": "%"}, {"measurement": "residual activity", "setting": "CDK4 CCND3 (human)", "result": 67, "unit": "%"}, {"measurement": "residual activity", "setting": "BLK (human)", "result": 87, "unit": "%"}, {"measurement": "residual activity", "setting": "MAP3K3 (human)", "result": 97, "unit": "%"}, {"measurement": "residual activity", "setting": "CDK4 CCND1 (human)", "result": 60.7, "unit": "%"}, {"measurement": "residual activity", "setting": "AXL (human)", "result": 100, "unit": "%"}, {"measurement": "residual activity", "setting": "LYN (human)", "result": "104% and 84.1%"}, {"measurement": "residual activity", "setting": "EPHB4 (human)", "result": 86.8, "unit": "%"}, {"measurement": "residual activity", "setting": "PRKD3 (human)", "result": 54.6, "unit": "%"}, {"measurement": "residual activity", "setting": "MUSK (human)", "result": 71.9, "unit": "%"}, {"measurement": "residual activity", "setting": "CSNK1A1 (human)", "result": 96.5, "unit": "%"}, {"measurement": "residual activity", "setting": "SGK2 (human)", "result": 74.4, "unit": "%"}, {"measurement": "residual activity", "setting": "YES1 (human)", "result": 84.6, "unit": "%"}, {"measurement": "residual activity", "setting": "CDK9 CCNT1 (human)", "result": 65.3, "unit": "%"}, {"measurement": "residual activity", "setting": "PIM2 (human)", "result": 64.1, "unit": "%"}, {"measurement": "residual activity", "setting": "JAK3 JH1 JH2 (human)", "result": 81.5, "unit": "%"}, {"measurement": "residual activity", "setting": "TAOK1 (human)", "result": 80.8, "unit": "%"}, {"measurement": "residual activity", "setting": "STK39 (human)", "result": 91.9, "unit": "%"}, {"measurement": "residual activity", "setting": "CAMK1D (human)", "result": 68, "unit": "%"}, {"measurement": "residual activity", "setting": "MARK2 (human)", "result": 71.7, "unit": "%"}, {"measurement": "residual activity", "setting": "TGFBR2 (human)", "result": 90.4, "unit": "%"}, {"measurement": "residual activity", "setting": "ULK2 (human)", "result": 145, "unit": "%"}, {"measurement": "residual activity", "setting": "LCK (human)", "result": 91.8, "unit": "%"}, {"measurement": "residual activity", "setting": "DYRK3 (human)", "result": 97.9, "unit": "%"}, {"measurement": "residual activity", "setting": "DMPK (human)", "result": 94.7, "unit": "%"}, {"measurement": "residual activity", "setting": "PRKG1 (human)", "result": "38.3% and 59.3%"}, {"measurement": "residual activity", "setting": "CDC42BPB (human)", "result": 90.8, "unit": "%"}, {"measurement": "residual activity", "setting": "CLK3 (human)", "result": 94.3, "unit": "%"}, {"measurement": "residual activity", "setting": "ABL1 (human)", "result": 103, "unit": "%"}, {"measurement": "residual activity", "setting": "RPS6KB1 (human)", "result": 11.6, "unit": "%"}, {"measurement": "residual activity", "setting": "FGFR3 (human)", "result": 87.9, "unit": "%"}, {"measurement": "residual activity", "setting": "CDK5 CDK5R1 p35 (human)", "result": 90, "unit": "%"}, {"measurement": "residual activity", "setting": "GRK5 (human)", "result": 71.6, "unit": "%"}, {"measurement": "residual activity", "setting": "ROCK2 (human)", "result": 113, "unit": "%"}, {"measurement": "residual activity", "setting": "FRK (human)", "result": 92.3, "unit": "%"}, {"measurement": "residual activity", "setting": "CAMK1 (human)", "result": 82.7, "unit": "%"}, {"measurement": "residual activity", "setting": "LIMK1 (human)", "result": 94.7, "unit": "%"}, {"measurement": "residual activity", "setting": "WNK2 (human)", "result": 107, "unit": "%"}]}
